Source: ChEMBL document CHEMBL1145395, “De novo design of selective antibiotic peptides by incorporation of unnatural amino acids” (J Med Chem, 2007)
Values after ≈ are worked out from the molar mass of the structure shown. Active and inactive are the calls of the source. No cut-off for these calls is given here. Non-standard residues stand in square brackets, D forms with d. Residues, ends and D or L forms follow the SMILES beside them. ξ: configuration not given here. Pro(3ξ,4ξ-(CH2)4) = O=C(O)[C@H]1NCC2CCCCC21; Oic = O=C(O)[C@@H]1C[C@@H]2CCCC[C@@H]2N1; Tic = O=C(O)[C@@H]1Cc2ccccc2CN1; dTic = O=C(O)[C@H]1Cc2ccccc2CN1; βAla = NCCC(=O)O

Experiments:
Mus musculus [1] = test: Acute toxicity in mouse at 5 mg/kg, ip after 6 days; format: organism-based; parameters: dose 5 mg/kg, route intraperitoneal; conditions: in vivo, 144 h
Mus musculus [2] = test: Acute toxicity in mouse at 25 mg/kg, ip after 6 days; format: organism-based; parameters: dose 25 mg/kg, route intraperitoneal; conditions: in vivo, 144 h
Mus musculus [3] = test: Acute toxicity in mouse at 125 mg/kg, ip after 6 days; format: organism-based; parameters: dose 125 mg/kg, route intraperitoneal; conditions: in vivo, 144 h
[4] = Toxicity to mouse RBC assessed as hemolytic activity at 100 uM; format: cell-based, Erythrocyte; conditions: red blood cells, read-out: Activity
Salmonella typhimurium = test: Antibacterial activity against Salmonella Typhimurium ATCC 13311; format: functional, Salmonella enterica subsp. enterica serovar Typhimurium; conditions: Salmonella enterica
Staphylococcus aureus [5] = test: Antibacterial activity against methicillin/gentamicin/tetracycline resistant Staphylococcus aureus ATCC 33592; format: functional
Mycobacterium = test: Antibacterial activity against Mycobacterium ranae ATCC 110; format: functional
Bacillus subtilis [6] = test: Antibacterial activity against Bacillus subtilis ATCC 43223; format: functional
[7] = Toxicity to mouse RBC assessed as hemolytic activity at 25 uM; format: cell-based, Erythrocyte; conditions: red blood cells, read-out: Activity
Staphylococcus aureus [8] = test: Antibacterial activity against methicillin/gentamicin/tetracycline resistant Staphylococcus aureus ATCC 33592 at 100 uM; format: functional, organism-based
Bacillus subtilis [9] = test: Antibacterial activity against Bacillus subtilis ATCC 43223 at 100 uM; format: functional, organism-based

CC(=O)NCC(=O)N[C@@H](Cc1ccccc1)C(=O)N1Cc2ccccc2C[C@H]1C(=O)N1[C@H](C(=O)NCC(=O)N[C@@H](CCCCN)C(=O)N2Cc3ccccc3C[C@H]2C(=O)N2[C@H](C(=O)NCC(=O)N[C@@H](Cc3ccccc3)C(=O)N3Cc4ccccc4C[C@H]3C(=O)N3[C@H](C(=O)NCC(=O)N[C@@H](CCCCN)C(=O)N4Cc5ccccc5C[C@H]4C(=O)N[C@@H](CCCCN)C(=O)N[C@@H](CCCCN)C(=O)N[C@@H](CCCCN)C(=O)N[C@@H](CCCCN)C(N)=O)C[C@@H]4CCCC[C@@H]43)C[C@@H]3CCCC[C@@H]32)C[C@@H]2CCCC[C@@H]21 (Ac-GF[Tic][Oic]GK[Tic][Oic]GF[Tic][Oic]GK[Tic]KKKK-NH2)
Activity (Mus musculus [1]): Toxic | Activity (Mus musculus [2]): Toxic | Activity (Mus musculus [3]): Toxic | hemolysis at 100 µM [4]: 14%

CC(=O)NCCC(=O)N[C@@H](Cc1ccccc1)C(=O)N1Cc2ccccc2C[C@H]1C(=O)N1CC2CCCCC2[C@H]1C(=O)NCCC(=O)N[C@@H](CCCCN)C(=O)N1Cc2ccccc2C[C@H]1C(=O)N1CC2CCCCC2[C@H]1C(=O)NCCC(=O)N[C@@H](Cc1ccccc1)C(=O)N1Cc2ccccc2C[C@@H]1C(=O)N1CC2CCCCC2[C@H]1C(=O)NCCC(=O)N[C@@H](CCCCN)C(=O)N1Cc2ccccc2C[C@H]1C(=O)N[C@@H](CCCCN)C(=O)N[C@@H](CCCCN)C(=O)N[C@@H](CCCCN)C(=O)N[C@@H](CCCCN)C(N)=O (stereo not given in full) (Ac-[βAla]F[Tic][Pro(3ξ,4ξ-(CH2)4)][βAla]K[Tic][Pro(3ξ,4ξ-(CH2)4)][βAla]F[dTic][Pro(3ξ,4ξ-(CH2)4)][βAla]K[Tic]KKKK-NH2)
MIC (Salmonella typhimurium): 10 µM (≈ 25 µg/mL) | MIC (Staphylococcus aureus [5]): 10 µM (≈ 25 µg/mL) | MIC (Mycobacterium): 1 µM (≈ 2.5 µg/mL) | MIC (Bacillus subtilis [6]): 1 µM (≈ 2.5 µg/mL) | Activity (Mus musculus [1]): Toxic | Activity (Mus musculus [2]): Toxic | Activity (Mus musculus [3]): Toxic | hemolysis at 100 µM [4]: 24.4% | hemolysis at 25 µM [7]: 7.4%

CC[C@H](C)[C@H](NC(=O)[C@H](CCC(=O)O)NC(=O)CNC(=O)[C@@H](NC(=O)[C@H](Cc1ccccc1)NC(=O)[C@H](C)NC(=O)[C@H](CCCCN)NC(=O)CNC(=O)[C@H](Cc1ccccc1)NC(=O)[C@H](CCCCN)NC(=O)CNC(=O)[C@H](C)NC(=O)[C@H](CO)NC(=O)[C@H](Cc1cnc[nH]1)NC(=O)[C@H](CC(C)C)NC(=O)[C@H](Cc1ccccc1)NC(=O)[C@H](CCCCN)NC(=O)CNC(=O)[C@H](NC(=O)CN)[C@@H](C)CC)C(C)C)C(=O)N[C@@H](CCSC)C(=O)N[C@@H](CCCCN)C(=O)N[C@@H](CO)C(N)=O
Activity (Staphylococcus aureus [8]): inactive | Activity (Bacillus subtilis [9]): inactive
